Reference: ChEMBL document CHEMBL1201862, “PubChem BioAssay data set” (2004)
Calls of active or inactive are those of the source.

Key:
[1] = blockers of HIV-1 ZM109 envelope-driven cell-cell fusion – HeLa effector, CEM target cells, luciferase, cherry-pick, dose response (AID 652058); format: functional, cell-based;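 further: luciferase signal from HIV-1 Env mediated cell-cell fusion of effector and target cells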
[2] = HIV-1 AD8 envelope cell-cell fusion blockers – cherry-pick, dose response (AID 652062); format: functional, cell-based;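 further: luciferase signal from cell-cell fusion driven by HIV-1 clade B AD8 Env; potency is for inhibitors of fusion seen as a drop in luminescence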
[3] = off-target signal loss in HeLa-CEM21 co-culture – HeLa F-luc CTL cells, cherry-picked, counter-screen for HIV-1 Env fusion inhibitor project, dose response (AID 652040); format: functional, cell-based;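 further: potency for signal decrease marking cytotoxic or nonspecific inhibition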
[4] = blockers of HIV-1 envelope-mediated cell-cell fusion – cherry-pick, dose response (AID 652057); format: functional, cell-based
[5] = alpha-synuclein stem-loop luciferase translation blockers – H4 neuroglioma cells, luminescence, confirmation (AID 1988); format: functional, cell-based
[6] = Luminescence Cell-Based Dose Response HTS to Identify Inhibitors of 5'UTR Stem-Loop Driven Prion Protein mRNA Translation in H4 Neuroglioblastoma Cells. [Related pubchem assays: 1827 (Project Summary), 1813 (Primary HTS)]; format: functional
[7] = luciferase reporter signal suppression in cells – H4 neuroglioma cells, luminescence, dose response (AID 1990); format: functional, cell-based
[8] = molecular target: T1, DNA repair protein RAD52 homolog (Homo sapiens, UniProt P43351); format: functional, biochemical
T1 sequence (P43351 whole entry): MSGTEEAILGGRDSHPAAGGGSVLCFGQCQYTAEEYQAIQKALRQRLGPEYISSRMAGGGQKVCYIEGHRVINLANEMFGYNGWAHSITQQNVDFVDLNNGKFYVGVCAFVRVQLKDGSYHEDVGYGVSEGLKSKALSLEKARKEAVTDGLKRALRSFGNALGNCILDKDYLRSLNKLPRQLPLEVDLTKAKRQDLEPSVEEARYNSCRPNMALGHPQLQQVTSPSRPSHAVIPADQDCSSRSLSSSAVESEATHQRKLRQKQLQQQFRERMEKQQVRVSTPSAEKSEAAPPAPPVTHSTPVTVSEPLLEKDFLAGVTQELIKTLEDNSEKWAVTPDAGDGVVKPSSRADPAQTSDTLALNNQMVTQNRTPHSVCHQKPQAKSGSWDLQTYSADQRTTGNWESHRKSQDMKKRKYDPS

[9] = NIH3T3 cell viability loss – ATP luminescence, mouse fibroblasts, counter-screen, dose response (AID 2010); format: functional, cell-based;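 further: cells exposed to compound for about 90 hours before reading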
[10] = Trypanosoma cruzi growth suppression in host cells – NIH3T3 host cells, beta-gal luminescence, confirmation (AID 2044); format: functional, cell-based;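 further: intracellular parasites grown in NIH/3T3 mouse fibroblasts as host cells; luminescent beta-galactosidase reporter signal from transgenic T. cruzi replicating inside host cells; inhibitors lower the luminescence signal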
[11] = molecular target: T2, Short transient receptor potential channel 4 (Mus musculus, UniProt Q9QUQ5); assay: block of DAMGO-driven TRPC4 calcium entry – cell-based, HEK293 TRPC4/mu-opioid, Fluo-4 calcium, dose response (AID 434942); format: functional;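 further: potency of inhibitors blocking the TRPC4 calcium response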
T2 sequence (Q9QUQ5 whole entry): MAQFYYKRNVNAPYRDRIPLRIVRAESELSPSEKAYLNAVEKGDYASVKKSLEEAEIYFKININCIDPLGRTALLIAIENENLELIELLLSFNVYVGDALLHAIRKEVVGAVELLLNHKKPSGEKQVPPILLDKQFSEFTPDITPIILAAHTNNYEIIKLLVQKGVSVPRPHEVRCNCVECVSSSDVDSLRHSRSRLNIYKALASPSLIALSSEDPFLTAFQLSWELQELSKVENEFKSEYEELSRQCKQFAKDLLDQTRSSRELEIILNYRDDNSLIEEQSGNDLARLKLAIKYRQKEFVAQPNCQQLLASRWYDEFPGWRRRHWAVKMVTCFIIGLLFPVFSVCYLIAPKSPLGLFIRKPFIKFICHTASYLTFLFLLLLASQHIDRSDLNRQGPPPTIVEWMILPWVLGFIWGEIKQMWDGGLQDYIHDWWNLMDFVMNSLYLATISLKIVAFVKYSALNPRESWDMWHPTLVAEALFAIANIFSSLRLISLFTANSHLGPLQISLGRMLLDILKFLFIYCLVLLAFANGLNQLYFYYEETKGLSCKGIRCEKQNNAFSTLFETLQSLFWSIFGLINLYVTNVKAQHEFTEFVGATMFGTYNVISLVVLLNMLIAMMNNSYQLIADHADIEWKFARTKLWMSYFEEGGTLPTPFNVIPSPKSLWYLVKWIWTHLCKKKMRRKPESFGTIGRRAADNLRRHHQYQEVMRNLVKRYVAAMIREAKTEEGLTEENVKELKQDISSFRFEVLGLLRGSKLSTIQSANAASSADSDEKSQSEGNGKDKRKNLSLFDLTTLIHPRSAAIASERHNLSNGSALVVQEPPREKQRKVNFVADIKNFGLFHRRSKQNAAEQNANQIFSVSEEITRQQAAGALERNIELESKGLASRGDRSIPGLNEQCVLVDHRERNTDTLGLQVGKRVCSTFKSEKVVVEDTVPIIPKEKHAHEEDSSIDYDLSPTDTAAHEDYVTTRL

Cytochrome P450 2C9 = Cytochrome P450 2C9 (Homo sapiens, UniProt P11712)
H4 = assay: Luminescence Cell-Based Dose Response HTS to Identify Activators of 5'UTR Stem-Loop Driven Prion Protein mRNA Translation in H4 Neuroglioblastoma Cells. [Related pubchem assays: 1829 (Project Summary), 1814 (Primary HTS)]; format: functional; settings: Homo sapiens
Cytochrome P450 2D6 = Cytochrome P450 2D6 (Homo sapiens, UniProt P10635);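 further: CYP2D6 member of a cytochrome P450 panel assay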
Cytochrome P450 3A4 = Cytochrome P450 3A4 (Homo sapiens, UniProt P08684);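 further: CYP3A4 tested as one member of a cytochrome P450 panel screen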
[12] = Luminescence Cell-Based Dose Confirmation HTS to Identify Activators of 5'UTR Stem-Loop Driven Alpha-Synuclein mRNA Translation in H4 Neuroglioblastoma Cells. [Related pubchem assays: 1829 (Project Summary), 1814 (Primary HTS)]; format: functional
[13] = Luminescence Cell-Based Dose Response HTS to Identify Activators of Luciferase Translation or Activity in H4 […] Cells. [Related pubchem assays: 1829 (Project Summary), 1814 (Primary HTS)]; format: functional
Cytochrome P450 1A2 = molecular target: T3, Cytochrome P450 1A2 (Homo sapiens, UniProt P05177);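 further: PubChem cytochrome P450 panel assay, CYP1A2 panel member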
T3 sequence (P05177 whole entry): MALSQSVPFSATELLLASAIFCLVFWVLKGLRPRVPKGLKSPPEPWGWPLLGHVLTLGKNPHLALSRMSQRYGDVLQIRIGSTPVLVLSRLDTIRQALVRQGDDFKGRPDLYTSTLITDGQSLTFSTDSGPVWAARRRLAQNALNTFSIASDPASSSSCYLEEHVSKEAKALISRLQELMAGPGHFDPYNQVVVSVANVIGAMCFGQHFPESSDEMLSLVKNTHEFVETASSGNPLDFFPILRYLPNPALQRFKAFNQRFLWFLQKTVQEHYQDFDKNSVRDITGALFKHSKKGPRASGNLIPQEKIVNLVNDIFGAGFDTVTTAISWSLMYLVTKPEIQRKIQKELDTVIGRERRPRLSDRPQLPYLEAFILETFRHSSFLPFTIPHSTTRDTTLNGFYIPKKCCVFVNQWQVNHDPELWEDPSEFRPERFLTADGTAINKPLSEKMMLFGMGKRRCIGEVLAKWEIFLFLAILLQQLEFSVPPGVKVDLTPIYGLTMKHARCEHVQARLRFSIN

Cytochrome P450 2C19 = Cytochrome P450 2C19 (Homo sapiens, UniProt P33261); assay: Cytochrome panel assay with activity outcomes. Panel member name: p450-cyp2c19 Compounds with AC50 equal or less than 10 uM are considered active; format: functional; settings: read-out: AC50
[14] = growth inhibition of yeast DHODH-expressing 3D7 parasites – SYBR Green, dry powder samples, dose response (AID 1159570); format: functional, cell-based;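 further: parasite growth measured after 72 hours of compound exposure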
[15] = Dd2 malaria parasite growth inhibition potency – SYBR Green, dry powder samples, dose response (AID 1159566); format: functional, cell-based;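 further: potency for growth inhibition with lower SYBR green DNA signal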
[16] = P. falciparum Dd2 growth inhibitors, dose response, SYBR Green, cherry-picked samples (AID 1159567); format: functional, cell-based
[17] = toxicity to human HepG2 hepatoma cells – cell-based, plate reader, dry powder samples, cytotoxicity control, dose response (AID 1159569); format: functional;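 further: inhibitor potency with signal falling toward the positive control level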
[18] = growth inhibition of PfATP4-mutant resistant parasites – NITD609-resistant line, SYBR Green, dry powder, dose response (AID 1159571); format: functional, cell-based;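 further: parasites synchronized at ring stage by sorbitol before testing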

Cytochrome P450 2C9, sequence (P11712 whole entry): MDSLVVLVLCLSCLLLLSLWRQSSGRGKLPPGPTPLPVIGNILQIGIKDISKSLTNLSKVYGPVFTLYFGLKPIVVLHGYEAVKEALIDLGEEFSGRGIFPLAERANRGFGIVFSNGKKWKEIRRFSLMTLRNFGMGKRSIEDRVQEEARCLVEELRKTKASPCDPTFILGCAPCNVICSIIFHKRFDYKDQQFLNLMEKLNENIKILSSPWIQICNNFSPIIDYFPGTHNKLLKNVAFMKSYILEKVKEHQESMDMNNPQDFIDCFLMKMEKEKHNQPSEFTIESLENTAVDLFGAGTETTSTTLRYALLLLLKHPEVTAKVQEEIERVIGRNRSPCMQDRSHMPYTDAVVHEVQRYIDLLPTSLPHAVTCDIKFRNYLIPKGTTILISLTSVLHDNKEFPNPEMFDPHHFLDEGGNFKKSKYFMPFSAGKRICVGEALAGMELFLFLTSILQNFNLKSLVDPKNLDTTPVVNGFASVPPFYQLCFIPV
Cytochrome P450 2D6, sequence (P10635 whole entry): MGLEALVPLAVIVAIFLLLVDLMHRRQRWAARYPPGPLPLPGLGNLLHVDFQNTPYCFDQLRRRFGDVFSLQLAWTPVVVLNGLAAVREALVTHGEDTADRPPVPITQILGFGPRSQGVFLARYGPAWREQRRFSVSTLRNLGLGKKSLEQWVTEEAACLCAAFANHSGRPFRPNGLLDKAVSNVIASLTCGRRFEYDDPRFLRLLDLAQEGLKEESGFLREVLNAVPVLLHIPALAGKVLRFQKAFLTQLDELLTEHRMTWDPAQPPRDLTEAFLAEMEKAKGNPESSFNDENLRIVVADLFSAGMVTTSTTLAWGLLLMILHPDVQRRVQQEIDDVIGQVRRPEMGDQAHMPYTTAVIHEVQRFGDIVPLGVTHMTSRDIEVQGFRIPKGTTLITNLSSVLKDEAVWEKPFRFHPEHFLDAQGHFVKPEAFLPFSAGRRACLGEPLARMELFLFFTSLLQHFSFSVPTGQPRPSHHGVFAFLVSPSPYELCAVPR
Cytochrome P450 3A4, sequence (P08684 whole entry): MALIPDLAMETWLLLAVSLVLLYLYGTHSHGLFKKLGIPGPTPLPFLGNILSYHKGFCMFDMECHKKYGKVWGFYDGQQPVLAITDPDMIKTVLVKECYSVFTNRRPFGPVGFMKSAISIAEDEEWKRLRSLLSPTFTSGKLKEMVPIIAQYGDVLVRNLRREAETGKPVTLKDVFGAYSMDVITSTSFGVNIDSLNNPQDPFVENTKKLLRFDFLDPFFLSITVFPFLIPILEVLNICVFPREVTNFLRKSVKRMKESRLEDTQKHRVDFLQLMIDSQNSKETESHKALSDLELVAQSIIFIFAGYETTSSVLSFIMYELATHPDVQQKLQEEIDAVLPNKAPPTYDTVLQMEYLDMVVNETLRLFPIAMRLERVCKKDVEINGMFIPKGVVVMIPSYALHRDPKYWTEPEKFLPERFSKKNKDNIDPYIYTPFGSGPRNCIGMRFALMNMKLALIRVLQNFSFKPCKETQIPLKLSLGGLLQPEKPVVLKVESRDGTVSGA
Cytochrome P450 2C19, sequence (P33261 whole entry): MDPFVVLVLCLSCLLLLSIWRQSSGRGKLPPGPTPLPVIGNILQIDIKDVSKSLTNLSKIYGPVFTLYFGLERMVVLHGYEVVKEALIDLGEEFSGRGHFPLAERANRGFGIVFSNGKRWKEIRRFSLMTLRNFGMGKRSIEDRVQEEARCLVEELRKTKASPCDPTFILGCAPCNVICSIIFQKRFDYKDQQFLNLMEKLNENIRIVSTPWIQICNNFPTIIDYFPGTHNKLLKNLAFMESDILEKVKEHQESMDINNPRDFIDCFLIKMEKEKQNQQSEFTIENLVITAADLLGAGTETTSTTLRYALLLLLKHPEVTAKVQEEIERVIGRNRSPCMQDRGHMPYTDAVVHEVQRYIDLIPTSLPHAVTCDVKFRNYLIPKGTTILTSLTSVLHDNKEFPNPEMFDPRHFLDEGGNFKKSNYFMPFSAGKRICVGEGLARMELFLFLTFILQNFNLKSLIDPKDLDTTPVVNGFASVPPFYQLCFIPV

## CCOc1ccc(NS(=O)(=O)c2ccc(C(=O)N(C)CCc3ccc(OC)c(OC)c3)cc2)cc1
[1]
  AC50: 2.58 µM (active)
[2]
  AC50: 5.92 µM (active)
[3]
  AC50: 4.78 µM (active)
[4]
  AC50: 3.4 µM (active)

## CN(C)CC/C=C1\c2ccc(F)cc2Sc2cc(F)c(Cl)cc21
[5]
  EC50: 12.9 µM (active)
[6]
  EC50: 45.6 µM (active)
[7]
  EC50: > 120 µM (not active)
[8]
  AC50: 9.75 µM (active)

## Cc1cc(-c2cn3ccccc3n2)c(C)n1-c1ccccc1
[9]
  EC50: > 30 µM (not active)
[10]
  EC50: 1.43 µM (active)
[11]
  EC50: 7.5 µM (active)

## CC(C)(CCc1nc2ccccc2[nH]1)C(=O)O
Cytochrome P450 2C9
  AC50: inconclusive

## Cc1cccc(C)c1N1CCc2c[nH]nc21
[11]
  EC50: 7.5 µM (active)

## CCOc1ccc2nc(SCc3ccccc3C#N)sc2c1
H4
  EC50: 0.7 µM (active)
Cytochrome P450 2D6
  AC50: 17.8 µM (inconclusive)
Cytochrome P450 3A4
  AC50: 12.6 µM (inconclusive)
[12]
  EC50: 1.1 µM (active)
Cytochrome P450 2C9
  AC50: inconclusive
[13]
  EC50: 0.884 µM (active)

## CCOc1ccccc1N(C(=O)CNC(=O)c1ccco1)C(C(=O)NC1CCCC1)c1cccnc1 (configuration not stated)
[1]
  AC50: 6.15 µM (active)
[2]
  AC50: 3.91 µM (active)
[3]
  AC50: 9.65 µM (active)
[4]
  AC50: 7.37 µM (active)

## O=C(CSc1nc2nncc-2c(O)n1-c1ccccc1Br)NCc1ccccc1Cl
[11]
  EC50: 2.99 µM (active)

## O=C(C1CCN(S(=O)(=O)c2cccc3cccnc23)CC1)N1CCN(c2ccccn2)CC1
Cytochrome P450 1A2
  AC50: 20 µM (inconclusive)
Cytochrome P450 2C9
  AC50: inconclusive
Cytochrome P450 2C19
  AC50: 7.08 µM (inconclusive)

## COc1ccc2c3c(n(C)c2c1)[C@@H](CO)N(C(=O)Nc1ccc(F)cc1)CC31CCN(Cc2cccnc2)CC1
[14]
  AC50: 1.37 µM (active)
[15]
  AC50: 0.727 µM (active)
[16]
  AC50: 0.819 µM (active)
[17]
  AC50: 31.7 µM (active)
[18]
  AC50: 1.12 µM (active)
